In patent publication US12077503B2, “Substituted cyclic amides and their use as herbicides” (FMC CORPORATION, priority 2015, dated 2024):

Tests used:
Format in all cases: in vivo
[1] = system: ragweed (common ragweed, Ambrosia elatior); experiment: Test A postemergence
From the text: (§1) Seeds of plant species selected from barnyardgrass (Echinochloa crus-galli), Kochia (Kochia scoparia), ragweed (common ragweed, Ambrosia elatior), ryegrass, Italian (Italian ryegrass, Lolium multiflorum), crabgrass, large (Digitaria sanguinalis), giant foxtail (Setaria faberii), green foxtail (Setaria viridis), morningglory (Ipomoea spp.), pigweed (Amaranthus retroflexus), velvetleaf (Abutilon theophrasti), wheat (Triticum aestivum), and corn (Zea mays) were planted into a blend of loam soil and sand and treated preemergence with a directed soil spray using test chemicals formulated in anon-phytotoxic solvent mixture which included a surfactant.
(§2) At the same time, plants selected from these crop and weed species and also blackgrass (Alopecurus myosuroides), and Galium (catchweed bedstraw, Galium aparine) were planted in pots containing the same blend of loam soil and sand and treated with postemergence applications of test chemicals formulated in the same manner. Plants ranged in height from 2 to 10 cm and were in the one- to two-leaf stage for the postemergence treatment. Treated plants and untreated controls were maintained in a greenhouse for approximately 10 d, after which time all treated plants were compared to untreated controls and visually evaluated for injury. Plant response ratings, summarized in Table A, are based on a 0 to 100 scale where 0 is no effect and 100 is complete control. A dash (-) response means no test result.

[2] = system: wheat (Triticum aestivum); experiment: Test A postemergence
From the text: as §1, §2

[3] = system: barnyardgrass (Echinochloa crus-galli); experiment: Test A postemergence
From the text: as §1, §2

[4] = system: blackgrass (Alopecurus myosuroides); experiment: Test A postemergence
From the text: as §1, §2

[5] = system: Galium (catchweed bedstraw, Galium aparine); experiment: Test A postemergence
From the text: as §1, §2

[6] = system: pigweed (Amaranthus retroflexus); experiment: Test A postemergence
From the text: as §1, §2

[7] = system: corn (Zea mays); experiment: Test A postemergence
From the text: as §1, §2

[8] = system: giant foxtail (Setaria faberii); experiment: Test A postemergence
From the text: as §1, §2

[9] = system: Kochia (Kochia scoparia); experiment: Test A postemergence
From the text: as §1, §2

[10] = system: ryegrass, Italian (Italian ryegrass, Lolium multiflorum); experiment: Test A postemergence
From the text: as §1, §2

[11] = system: ducksalad (Heteranthera limosa); experiment: Test B flooded paddy test; details: Flood, 250 g ai/ha; 0 to 100 scale where 0 is no effect and 100 is complete control; 13 to 15 d
Experimental: (§3) Plant species in the flooded paddy test selected from rice (Oryra sativa), sedge, umbrella (small-flower umbrella sedge, Cyperus difformis), ducksalad (Heteranthera limosa), and barnyardgrass (Echinochloa crus-galli) were grown to the 2-leaf stage for testing. At time of treatment, test pots were flooded to 3 cm above the soil surface, treated by application of test compounds directly to the paddy water, and then maintained at that water depth for the duration of the test. Treated plants and controls were maintained in a greenhouse for 13 to 15 d, after which time all species were compared to controls and visually evaluated. Plant response ratings, summarized in Table B, are based on a scale of 0 to 100 where 0 is no effect and 100 is complete control. A dash (-) response means no test result.

[12] = system: sedge, umbrella (small-flower umbrella sedge, Cyperus difformis); experiment: Test B flooded paddy test; details: Flood, 250 g ai/ha; 0 to 100 scale where 0 is no effect and 100 is complete control; 13 to 15 d
Experimental: as §3

[13] = system: barnyardgrass (Echinochloa crus-galli); experiment: Test B flooded paddy test; details: Flood, 250 g ai/ha; 0 to 100 scale where 0 is no effect and 100 is complete control; 13 to 15 d
Experimental: as §3

[14] = system: rice (Oryra sativa); experiment: Test B flooded paddy test; details: Flood, 250 g ai/ha; 0 to 100 scale where 0 is no effect and 100 is complete control; 13 to 15 d
Experimental: as §3

[15] = system: ragweed (common ragweed, Ambrosia elatior); experiment: Test A preemergence; details: Preemergence; for Plant response rating, Ragweed: 125 g ai/ha, visual injury after approximately 10 d, 0 to 100 scale where 0 is no effect and 100 is complete control
From the text: as §1, §2

[16] = system: barnyardgrass (Echinochloa crus-galli); experiment: Test A preemergence; details: for Plant response rating, Barnyardgrass: 125 g ai/ha; for Barnyardgrass plant response rating (0 to 100 scale, 0 is no effect, 100 is complete control): 500 g ai/ha, visual injury approx. 10 d
From the text: as §1, §2

[17] = system: pigweed (Amaranthus retroflexus); experiment: Test A preemergence; details: Preemergence; for Pigweed plant response rating (0 to 100 scale, 0 is no effect, 100 is complete control): 500 g ai/ha, visual injury approx. 10 d
From the text: as §1, §2

[18] = system: giant foxtail (Setaria faberii); experiment: Test A preemergence; details: for Plant response rating, Foxtail, Giant: 125 g ai/ha; for Foxtail, Giant plant response rating (0 to 100 scale, 0 is no effect, 100 is complete control): 500 g ai/ha, visual injury approx. 10 d
From the text: as §1, §2

[19] = system: Kochia (Kochia scoparia); experiment: Test A preemergence; details: for Plant response rating, Kochia: 125 g ai/ha; for Kochia plant response rating (0 to 100 scale, 0 is no effect, 100 is complete control): 500 g ai/ha, visual injury approx. 10 d
From the text: as §1, §2

[20] = system: ryegrass, Italian (Italian ryegrass, Lolium multiflorum); experiment: Test A preemergence; details: Preemergence; for Plant response rating, Ryegrass, Italian: 125 g ai/ha, visual injury after approximately 10 d, 0 to 100 scale where 0 is no effect and 100 is complete control; for Ryegrass, Italian plant response rating (0 to 100 scale, 0 is no effect, 100 is complete control): 500 g ai/ha, visual injury approx. 10 d
From the text: as §1, §2

[21] = 125 g ai/ha, postemergence, visual rating after approx. 10 d, 0 to 100 scale (0 no effect, 100 complete control)
[22] = Postemergence, 500 g ai/ha, 0 to 100 scale where 0 is no effect and 100 is complete control
[23] = Preemergence, visual injury after approximately 10 d, 0 to 100 scale where 0 is no effect and 100 is complete control
[24] = 125 g ai/ha, postemergence, visual injury rating on 0 to 100 scale (0 no effect, 100 complete control), approx. 10 d
[25] = 500 g ai/ha, postemergence, 0 to 100 scale, 0 no effect, 100 complete control
[26] = preemergence, 0 to 100 scale (0 no effect, 100 complete control)

O=C1NCC(c2cc(C(F)(F)F)ccc2F)C1C(=O)Nc1ccccc1F (stereo not shown) [Compound 593]
Plant response rating, Ragweed [1, 21]: 0
Plant response rating, Ragweed [1, 22]: 0
Plant response rating, Wheat [2, 21]: 0
Plant response rating, Wheat [2, 22]: 40
Plant response rating, Barnyardgrass [3, 21]: 90
Plant response rating, Barnyardgrass [3, 22]: 90
Plant response rating, Blackgrass [4, 21]: 50
Plant response rating, Blackgrass [4, 22]: 60
Plant response rating, Galium [5, 21]: 0
Plant response rating, Galium [5, 22]: 20
Plant response rating, Pigweed [6, 21]: 0
Plant response rating, Pigweed [6, 22]: 0
Plant response rating, Corn [7, 21]: 30
Plant response rating, Corn [7, 22]: 70
Plant response rating, Foxtail, Giant [8, 21]: 90
Plant response rating, Foxtail, Giant [8, 22]: 90
Plant response rating, Kochia [9, 21]: 0
Plant response rating, Kochia [9, 22]: 0
Plant response rating, Ryegrass, Italian [10, 21]: 0
Plant response rating, Ryegrass, Italian [10, 22]: 30
Plant response rating, Ducksalad [11]: 80
Plant response rating, Sedge, Umbrella [12]: 0
Plant response rating, Barnyardgrass [13]: 60
Plant response rating, Rice [14]: 15
Plant response rating, Ragweed [15]: 0
Ragweed plant response rating (0 to 100 scale, 0 is no effect, 100 is complete control) ([15]; 500 g ai/ha, visual injury approx. 10 d): 0
Plant response rating, Barnyardgrass [16, 23]: 90
Barnyardgrass plant response rating (0 to 100 scale, 0 is no effect, 100 is complete control) ([16]; Preemergence): 90
Pigweed plant response rating (0 to 100 scale, 0 is no effect, 100 is complete control) [17]: 0
Plant response rating, Foxtail, Giant [18, 23]: 90
Foxtail, Giant plant response rating (0 to 100 scale, 0 is no effect, 100 is complete control) ([18]; Preemergence): 90
Plant response rating, Kochia [19, 23]: 0
Kochia plant response rating (0 to 100 scale, 0 is no effect, 100 is complete control) ([19]; Preemergence): 0
Plant response rating, Ryegrass, Italian [20]: 0
Ryegrass, Italian plant response rating (0 to 100 scale, 0 is no effect, 100 is complete control) [20]: 50

CC(C)c1ccc(C2CNC(=O)C2C(=O)Nc2cccc(F)c2F)cc1 (stereo not shown) [Compound 470]
Ragweed plant response rating [1, 24]: 0
Plant response rating, Ragweed [1, 22]: 0
Wheat plant response rating [2, 24]: 0
Plant response rating, Wheat [2, 22]: 0
Barnyardgrass plant response rating [3, 24]: 60
Plant response rating, Barnyardgrass [3, 25]: 70
Blackgrass plant response rating [4, 24]: 30
Plant response rating, Blackgrass [4, 25]: 50
Galium plant response rating [5, 24]: 0
Plant response rating, Galium [5, 22]: 0
Pigweed plant response rating [6, 24]: 0
Plant response rating, Pigweed [6, 22]: 0
Corn plant response rating [7, 24]: 0
Plant response rating, Corn [7, 25]: 0
Foxtail, Giant plant response rating [8, 24]: 40
Plant response rating, Foxtail, Giant [8, 22]: 80
Kochia plant response rating [9, 24]: 0
Plant response rating, Kochia [9, 22]: 0
Ryegrass, Italian plant response rating [10, 24]: 0
Plant response rating, Ryegrass, Italian [10, 22]: 20
Plant response rating, Ducksalad [11]: 85
Plant response rating, Sedge, Umbrella [12]: 0
Plant response rating, Barnyardgrass [13]: 0
Plant response rating, Rice [14]: 0
Plant response rating, Ragweed [15]: 0
Plant response rating, Barnyardgrass [16, 26]: 90
Barnyardgrass plant response rating (0 to 100 scale, 0 is no effect, 100 is complete control) ([16]; Preemergence): 90
Plant response rating, Pigweed ([17]; 125 g ai/ha, visual injury after approximately 10 d, 0 to 100 scale where 0 is no effect and 100 is complete control): 0
Pigweed plant response rating (0 to 100 scale, 0 is no effect, 100 is complete control) [17]: 20
Plant response rating, Foxtail, Giant [18, 26]: 90
Foxtail, Giant plant response rating (0 to 100 scale, 0 is no effect, 100 is complete control) ([18]; Preemergence): 90
Plant response rating, Kochia [19, 26]: 70
Kochia plant response rating (0 to 100 scale, 0 is no effect, 100 is complete control) ([19]; Preemergence): 40
Plant response rating, Ryegrass, Italian [20]: 0
Ryegrass, Italian plant response rating (0 to 100 scale, 0 is no effect, 100 is complete control) [20]: 30
